Target: T1, IRAK4 (Homo sapiens, UniProt Q9NWZ3)
T1 construct: 293Tcells expressing HiBiT-tagged IRAK4 were then added into 384-well plates
T1 sequence (Q9NWZ3 1-460): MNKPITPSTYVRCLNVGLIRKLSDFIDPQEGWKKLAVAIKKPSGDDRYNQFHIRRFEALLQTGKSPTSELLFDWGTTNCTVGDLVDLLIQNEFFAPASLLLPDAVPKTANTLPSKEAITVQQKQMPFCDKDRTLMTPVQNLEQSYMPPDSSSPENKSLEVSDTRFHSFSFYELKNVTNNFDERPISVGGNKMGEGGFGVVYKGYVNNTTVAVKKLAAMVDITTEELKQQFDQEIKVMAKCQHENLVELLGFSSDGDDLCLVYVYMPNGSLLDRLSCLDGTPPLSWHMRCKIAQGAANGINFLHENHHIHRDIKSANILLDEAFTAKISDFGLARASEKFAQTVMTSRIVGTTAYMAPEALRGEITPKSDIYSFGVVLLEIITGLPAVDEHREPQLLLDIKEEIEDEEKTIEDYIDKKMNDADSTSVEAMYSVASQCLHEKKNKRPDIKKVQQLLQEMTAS
Experiment: IRAK4 Degradation Assay, HiBiT Method
Assay type: cell-based
Conditions: 293T cells expressing HiBiT-tagged IRAK4, 6 hours
Summary of the method: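 293T cells with HiBiT knocked in at the C-terminus of endogenous IRAK4, 10,000 per well, treated 6 h at 37 °C with an 11-point half-log series ([…]), in duplicate. Remaining IRAK4 read by Nano-Glo HiBiT lytic luminescence against DMSO-only and media-only controls.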

| DC50 | SMILES |
| --- | --- |
| 10 to 100 nM | CC(C)Oc1cc2nn(C3CCN(C(=O)CC4(O)CCN(c5cc(F)c(NC6CCC(=O)NC6=O)cc5F)CC4)CC3)cc2cc1C(=O)Nc1cccc(C(F)F)n1 (centres unmarked) [Example 66, N-(6-(difluoromethyl)pyridin-2-yl)-2-(1-(2-(1-(4-((2,6-dioxopiperidin-3-yl)amino)-2,5-difluorophenyl)-4-hydroxypiperidin-4-yl)acetyl)piperidin-4-yl)-6-isopropoxy-2H-indazole-5-carboxamide] |
| 10 to 100 nM | CC(C)Oc1cc2nc(C3CCN(C(=O)CC4(O)CCN(c5ccc(NC6CCC(=O)NC6=O)cc5)CC4)CC3)cn2cc1C(=O)Nc1cccc(C(F)(F)F)n1 (centres unmarked) [Example 72, 2-[1-[2-[1-[4-[(2,6-dioxo-3-piperidyl)amino]phenyl]-4-hydroxy-4-piperidyl]acetyl]-4-piperidyl]-7-isopropoxy-N-[6-(trifluoromethyl)-2-pyridyl]imidazo[1,2-a]pyridine-6-carboxamide] |
| 10 to 100 nM | CC(C)Oc1cc2nc(C3CCN(C(=O)CC4(O)CCN(c5cc(F)c(NC6CCC(=O)NC6=O)cc5F)CC4)CC3)cn2cc1C(=O)Nc1cccc(C(F)(F)F)n1 (centres unmarked) [Example 74, 2-[1-[2-[1-[4-[(2,6-dioxo-3-piperidyl)amino]-2,5-difluoro-phenyl]-4-hydroxy-4-piperidyl]acetyl]-4-piperidyl]-7-isopropoxy-N-[6-(trifluoromethyl)-2-pyridyl]imidazo[1,2-a]pyridine-6-carboxamide] |
| 10 to 100 nM | CC(C)Oc1cc2nc(C3CCN(C(=O)CC4(O)CCN(c5cc(Cl)c(NC6CCC(=O)NC6=O)cc5Cl)CC4)CC3)cn2cc1C(=O)Nc1cccc(C(F)F)n1 (centres unmarked) [Example 75, 2-[1-[2-[1-[2,5-dichloro-4-[(2,6-dioxo-3-piperidyl)amino]phenyl]-4-hydroxy-4-piperidyl]acetyl]-4-piperidyl]-N-[6-(difluoromethyl)-2-pyridyl]-7-isopropoxy-imidazo[1,2-a]pyridine-6-carboxamide] |

More lines, now with the values behind:

| SMILES | DC50 |
| --- | --- |
| CC(C)Oc1cc2nn(C3CCN(C(=O)CN4CCC(c5ccc(NC6CCC(=O)NC6=O)cc5F)CC4)CC3)cc2cc1C(=O)Nc1cccc(C(F)F)n1 (centres unmarked) [Example 64, N-(6-(difluoromethyl)pyridin-2-yl)-2-(1-(2-(4-(4-((2,6-dioxopiperidin-3-yl)amino)-2-fluorophenyl)piperidin-1-yl)acetyl)piperidin-4-yl)-6-isopropoxy-2H-indazole-5-carboxamide] | 500 to 1000 nM |
| CC(C)Oc1cc2nn(C3CCN(C(=O)CC4(O)CCN(c5ccc(NC6CCC(=O)NC6=O)cc5)CC4)CC3)cc2cc1C(=O)Nc1cccc(C(F)F)n1 (centres unmarked) [Example 65, N-(6-(difluoromethyl)pyridin-2-yl)-2-(1-(2-(1-(4-((2,6-dioxopiperidin-3-yl)amino)phenyl)-4-hydroxypiperidin-4-yl)acetyl)piperidin-4-yl)-6-isopropoxy-2H-indazole-5-carboxamide] | 10 to 100 nM |
| CC(C)Oc1cc2nn(C3CCN(C(=O)CC4(O)CCN(c5cc(F)c(C6CCC(=O)NC6=O)cc5F)CC4)CC3)cc2cc1C(=O)Nc1cccc(C(F)F)n1 (centres unmarked) [Example 67, N-(6-(difluoromethyl)pyridin-2-yl)-2-(1-(2-(1-(4-(2,6-dioxopiperidin-3-yl)-2,5-difluorophenyl)-4-hydroxypiperidin-4-yl)acetyl)piperidin-4-yl)-6-isopropoxy-2H-indazole-5-carboxamide] | < 10 nM |
| CC(C)Oc1cc2nc(C3CCN(C(=O)CN4CCC(c5cc(F)c(C6CCC(=O)NC6=O)cc5F)CC4)CC3)cn2cc1C(=O)Nc1cccc(C(F)F)n1 (centres unmarked) [Example 76, N-[6-(difluoromethyl)-2-pyridyl]-2-[1-[2-[4-[4-(2,6-dioxo-3-piperidyl)-2,5-difluoro-phenyl]-1-piperidyl]acetyl]-4-piperidyl]-7-isopropoxy-imidazo[1,2-a]pyridine-6-carboxamide] | 10 to 100 nM |
